Calls of active or inactive are those of the source. The rule behind the calls is not given here.
Columns and labels:
[1] = target: T1, Tubulin beta (Homo sapiens) (UniProt P68371+Q9H4B7+Q13509+P04350+Q3ZCM7+P07437+Q13885+Q9BVA1+Q9BUF5+A6NNZ2); experiment: Induction of Beta tubulin degradation in human HeLa cells at 0.001 to 100 uM incubated for 16 hrs by immunoblotting analysis; format: cell-based; settings: dose 0.001-100 µM
[2] = test system: HeLa; experiment: Antiproliferative activity against human HeLa cells assessed as cell viability at 0.001 to 100 uM incubated for 48 hrs by MTT assay; format: functional, cell-based; settings: dose 0.001-100 µM
[3] = test system: HCT-116; experiment: Antiproliferative activity against human HCT-116 cells assessed as cell viability at 0.001 to 100 uM incubated for 72 hrs by MTT assay; format: functional, cell-based; settings: dose 0.001-100 µM
[4] = target: T1, Tubulin beta (Homo sapiens); experiment: Induction of Beta tubulin degradation in human HeLa cells at 1 uM incubated for 16 hrs in presence of vinblastine by immunoblot analysis; format: cell-based
[5] = test system: HeLa; experiment: Downregulation of Beta tubulin level in human HeLa cells at 1 uM measured for 6 hrs by tandem mass tag quantitative proteomic analysis; format: functional, cell-based
[6] = target: Tubulin alpha; experiment: Induction of Alpha tubulin degradation in human HeLa cells incubated for 24 hrs by immunoblot analysis; format: cell-based
[7] = test system: HeLa; experiment: Induction of apoptosis in human HeLa cells assessed as accumulation of cells at G2/M phase 0.1 to 10 uM incubated for 16 hrs by propidium iodide staining based flow cytometry; format: functional, cell-based; settings: dose 0.1-10 µM
[8] = target: T2, Tubulin (Sus scrofa) (UniProt P02554+P02550); experiment: Induction of porcine tubulin aggregation assessed as formation of spherical sized tubulin aggregates at 20 uM incubated for 4 hrs by TEM analysis; format: protein assay
[9] = test system: HeLa; experiment: Downregulation of Alpha tubulin level in human HeLa cells at 1 uM by immunoblot analysis; format: functional, cell-based; settings: time 1-16 hrs, TDE = time-dependent effect
[10] = target: T3, Tubulin (Homo sapiens) (UniProt P68371+Q9H4B7+P0DPH7+P68366+Q13509+Q71U36+P04350+Q3ZCM7+P07437+P68363+Q9BQE3+Q6PEY2+Q13885+Q9BVA1+Q9BUF5); experiment: Induction of tubulin […] (unknown origin) assessed as increase in turbidity at 5 to 20 uM measured every one min for 30 mins by absorbance based analysis; format: protein-complex assay; settings: dose 5-20 µM
[11] = target: Tubulin beta; experiment: Induction of Beta tubulin degradation in human HeLa cells incubated for 24 hrs by immunoblot analysis; format: cell-based
[12] = target: T3, Tubulin (Homo sapiens); experiment: Induction of tubulin degradation in human HeLa cells assessed as ubiquitin of total protein at 0.01 to 100 uM incubated for 16 hrs by immunoblot analysis; format: cell-based; settings: dose 0.01-100 µM
[13] = test system: HeLa; experiment: Induction of FLAG tagged Beta tubulin E198Q mutant (unknown origin) transfected in HeLa cells incubated for 16 hrs by immunoblotting analysis; format: cell-based; settings: Homo sapiens
[14] = test system: NCI-H460; experiment: Downregulation of Beta tubulin level in human NCI-H460 cells incubated for 24 hrs by immunoblot analysis; format: functional, cell-based; settings: dose 0.1-10 µM, DDE = dose-dependent effect
[15] = test system: HCT-116; experiment: In vivo antitumor activity against human HCT-116 cells xenografted in Balb/c nude athymic mouse assessed as inhibition of tumor growth administered ip once a week and measured every 2 days for 24 days; format: functional, organism-based; settings: dose 10-40 mg/kg, time 2.0 day, DDE = dose-dependent effect
[16] = test system: SU-DHL-6; experiment: Downregulation of Alpha tubulin level in human SU-DHL-6 cells incubated for 24 hrs by immunoblot analysis; format: functional, cell-based; settings: dose 0.1-10 µM, DDE = dose-dependent effect
[17] = test system: NCI-H460; experiment: Antiproliferative activity against human NCI-H460 cells assessed as cell viability at 0.001 to 100 uM incubated for 72 hrs by MTT assay; format: functional, cell-based; settings: dose 0.001-100 µM
[18] = test system: HeLa; experiment: Induction of FLAG tagged Beta tubulin E198G mutant (unknown origin) transfected in HeLa cells incubated for 16 hrs by immunoblotting analysis; format: cell-based; settings: Homo sapiens
[19] = test system: HCT-116; experiment: Induction of apoptosis in human HCT-116 cells assessed as accumulation of cells at G2/M phase 0.1 to 10 uM incubated for 16 hrs by propidium iodide staining based flow cytometry; format: functional, cell-based; settings: dose 0.1-10 µM
[20] = test system: Tubulin beta (Homo sapiens), P68371+Q9H4B7+Q13509+P04350+Q3ZCM7+P07437+Q13885+Q9BVA1+Q9BUF5+A6NNZ2 [UNDEFINED MUTATION]; experiment: Induction of FLAG tagged Beta tubulin (unknown origin) Y200F mutant transfected in human HeLa cells incubated for 16 hrs by immunoblotting analysis; format: cell-based
[21] = test system: HeLa; experiment: Antiproliferative activity against human Hela cells assessed as cell viability at 0.001 to 100 microM incubated for 72 hrs by MTT assay; format: functional, cell-based; settings: dose 0.001-100 µM
[22] = target: T3, Tubulin (Homo sapiens); experiment: Destabilization of tubulin (unknown origin) assessed as melting temperature at 30 uM incubated for 20 mins by differential scanning fluorimetry; format: protein-complex assay
[23] = test system: Tubulin beta (Homo sapiens), P68371+Q9H4B7+Q13509+P04350+Q3ZCM7+P07437+Q13885+Q9BVA1+Q9BUF5+A6NNZ2 [UNDEFINED MUTATION]; experiment: Induction of FLAG tagged Beta tubulin E198D mutant (unknown origin) transfected in HeLa cells incubated for 16 hrs by immunoblotting analysis; format: cell-based
[24] = test system: HCT-116; experiment: In vivo antitumor activity against human HCT-116 cells xenografted in mouse model assessed as reduction in beta tubulin level at 80 mg/kg administered once through tail vein injection measured after 24 hrs by immunoblot analysis; format: functional, organism-based
[25] = target: T1, Tubulin beta (Homo sapiens); experiment: Induction of wild type flag tagged Beta tubulin (unknown origin) transfected in HeLa cells incubated for 16 hrs by immunoblotting analysis; format: cell-based
[26] = target: T1, Tubulin beta (Homo sapiens); experiment: Induction of Beta tubulin degradation in human HeLa cells at 1 uM incubated for 16 hrs in presence of maytansine by immunoblot analysis; format: cell-based
[27] = test system: NCI-H460; experiment: In vivo antitumor activity against human NCI-H460 cells xenografted in Balb/c nude athymic mouse assessed as inhibition of tumor growth administered ip once a week and measured every 2 days for 24 days; format: functional, organism-based; settings: dose 10-40 mg/kg, time 2.0 day, DDE = dose-dependent effect
[28] = test system: HCT-116; experiment: Downregulation of Beta tubulin level in human HCT-116 cells incubated for 24 hrs by immunoblot analysis; format: functional, cell-based; settings: dose 0.1-10 µM, DDE = dose-dependent effect
[29] = test system: HeLa; experiment: Reduction in Alpha tubulin mRNA expression in human HeLa cells at 1 uM measured upto 16 hrs by qPCR analysis; format: functional, cell-based
[30] = test system: HCT-116; experiment: Downregulation of Beta tubulin level in human HCT-116 cells at 1 uM by immunoblot analysis; format: functional, cell-based; settings: time 1-16 hrs, TDE = time-dependent effect
[31] = test system: HeLa; experiment: Reduction in Beta tubulin mRNA expression in human HeLa cells at 1 uM measured upto 16 hrs by qPCR analysis; format: functional, cell-based
[32] = target: T2, Tubulin (Sus scrofa); experiment: Inhibition of porcine tubulin polymerization measured every 1 min for 30 mins in presence of GTP by microplate reader analysis; format: protein assay; settings: dose 5-20 µM, DDE = dose-dependent effect
[33] = target: T1, Tubulin beta (Homo sapiens); experiment: Binding affinity to Beta-tubulin colchicine binding site in human HeLa cells assessed as inhibition of tubulin-EBI adduct formation at 2 to 25 uM pretreated fo 1 hr with compound followed by EBI addition measured after 2 hrs by Western blotting analysis; format: cell-based; settings: dose 2-25 µM, time 3.0 hrs
[34] = test system: HCT-116; experiment: In vivo antitumor activity against human HCT-116 cells xenografted in mouse model assessed as reduction in alpha tubulin level at 80 mg/kg administered once through tail vein injection measured after 24 hrs by immunoblot analysis; format: functional, organism-based
[35] = test system: HeLa; experiment: Downregulation of Alpha tubulin level in human HeLa cells at 1 uM measured for 6 hrs by tandem mass tag quantitative proteomic analysis; format: functional, cell-based
[36] = test system: SU-DHL-6; experiment: Downregulation of Beta tubulin level in human SU-DHL-6 cells incubated for 24 hrs by immunoblot analysis; format: functional, cell-based; settings: dose 0.1-10 µM, DDE = dose-dependent effect
[37] = target: T4, Tubulin alpha (Homo sapiens) (UniProt P0DPH7+P68366+Q71U36+P68363+Q9BQE3+Q6PEY2+A6NHL2+Q9NY65); experiment: Induction of Alpha tubulin degradation in human HeLa cells at 1 uM incubated for 16 hrs in presence of maytansine by immunoblot analysis; format: cell-based
[38] = target: T1, Tubulin beta (Homo sapiens); experiment: Induction of Beta tubulin degradation in human HeLa cells at 1 uM incubated for 16 hrs in presence of pironetin by immunoblot analysis; format: cell-based
[39] = test system: HCT-116; experiment: Downregulation of Alpha tubulin level in human HCT-116 cells incubated for 24 hrs by immunoblot analysis; format: functional, cell-based; settings: dose 0.1-10 µM, DDE = dose-dependent effect
[40] = test system: HeLa; experiment: Downregulation of Beta tubulin level in human HeLa cells incubated for 24 hrs by immunoblot analysis; format: functional, cell-based; settings: dose 0.1-10 µM, DDE = dose-dependent effect
[41] = test system: NCI-H460; experiment: Downregulation of Alpha tubulin level in human NCI-H460 cells incubated for 24 hrs by immunoblot analysis; format: functional, cell-based; settings: dose 0.1-10 µM, DDE = dose-dependent effect
[42] = target: T3, Tubulin (Homo sapiens); experiment: Induction of tubulin aggregation in human HeLa cells by size-exclusion chromatography; format: cell-based
[43] = target: T4, Tubulin alpha (Homo sapiens); experiment: Induction of Alpha tubulin degradation in human HeLa cells assessed as increase in ubiquitination level of Alpha tubulin at 1 to 10 uM incubated for 6 hrs by immunoblot analysis; format: cell-based; settings: dose 1-10 µM
[44] = test system: HeLa; experiment: Downregulation of Beta tubulin level in human HeLa cells at 1 uM by immunoblot analysis; format: functional, cell-based; settings: time 1-16 hrs, TDE = time-dependent effect
[45] = target: T1, Tubulin beta (Homo sapiens); experiment: Induction of Beta tubulin degradation in human HeLa cells assessed as increase in ubiquitination level of Beta tubulin at 1 to 10 uM incubated for 6 hrs by immunoblot analysis; format: cell-based; settings: dose 1-10 µM
[46] = target: T4, Tubulin alpha (Homo sapiens); experiment: Induction of Alpha tubulin degradation in human HeLa cells at 1 uM incubated for 16 hrs in presence of vinblastine by immunoblot analysis; format: cell-based
[47] = test system: HeLa; experiment: Downregulation of Alpha tubulin level in human HeLa cells incubated for 24 hrs by immunoblot analysis; format: functional, cell-based; settings: dose 0.1-10 µM, DDE = dose-dependent effect
[48] = test system: HCT-116; experiment: Downregulation of Alpha tubulin level in human HCT-116 cells at 1 uM by immunoblot analysis; format: functional, cell-based; settings: time 1-16 hrs, TDE = time-dependent effect
[49] = target: T4, Tubulin alpha (Homo sapiens); experiment: Induction of Alpha tubulin degradation in human HeLa cells at 1 uM incubated for 16 hrs in presence of pironetin by immunoblot analysis; format: cell-based

T2 sequence (P02550 whole entry, looked up): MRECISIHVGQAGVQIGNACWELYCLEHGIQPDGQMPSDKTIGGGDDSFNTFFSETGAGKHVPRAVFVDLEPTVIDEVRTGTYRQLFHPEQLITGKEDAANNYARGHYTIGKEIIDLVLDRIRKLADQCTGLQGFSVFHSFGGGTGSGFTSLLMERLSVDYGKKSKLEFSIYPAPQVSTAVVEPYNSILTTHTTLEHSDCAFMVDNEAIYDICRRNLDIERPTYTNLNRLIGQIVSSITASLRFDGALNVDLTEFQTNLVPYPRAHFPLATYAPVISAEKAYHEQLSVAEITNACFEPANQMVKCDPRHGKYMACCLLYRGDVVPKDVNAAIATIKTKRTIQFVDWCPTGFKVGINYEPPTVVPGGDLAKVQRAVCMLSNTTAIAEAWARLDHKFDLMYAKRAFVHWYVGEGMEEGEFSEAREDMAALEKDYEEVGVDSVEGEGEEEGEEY
T2 sequence (P02554 whole entry, looked up): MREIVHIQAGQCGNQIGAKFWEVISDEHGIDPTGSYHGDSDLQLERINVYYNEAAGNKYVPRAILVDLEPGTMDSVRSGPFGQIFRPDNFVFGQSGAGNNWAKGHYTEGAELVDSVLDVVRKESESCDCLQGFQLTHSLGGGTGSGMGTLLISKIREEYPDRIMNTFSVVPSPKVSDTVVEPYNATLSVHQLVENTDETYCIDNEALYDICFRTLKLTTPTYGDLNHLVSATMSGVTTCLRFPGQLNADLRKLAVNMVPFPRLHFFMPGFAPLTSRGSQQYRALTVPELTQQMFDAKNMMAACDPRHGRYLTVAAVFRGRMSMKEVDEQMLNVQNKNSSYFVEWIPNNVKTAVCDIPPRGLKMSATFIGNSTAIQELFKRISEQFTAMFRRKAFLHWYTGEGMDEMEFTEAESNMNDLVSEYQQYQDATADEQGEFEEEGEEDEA

## c1ccc(CNc2cc3c(cn2)[nH]c2ccccc23)cc1
[1]
  Activity: Active
[2]
  Activity: Active

## c1ccc(Oc2cccc(CNc3cc4c(cn3)[nH]c3ccccc34)c2)cc1
[3]
  Activity: Active
[4]
  Activity: Active
[5]
  Activity: Active
[6]
  DC50: 182 nM
[7]
  Activity: Active
[8]
  Activity: Active
[9]
  Activity: Tde
[10]
  Activity: Active
[11]
  DC50: 524 nM
[12]
  Activity: Active
[13]
  Activity: Active
[14]
  Activity: Dde
[15]
  Activity: Dde
[16]
  Activity: Dde
[17]
  Activity: Active
[18]
  Activity: Active
[19]
  Activity: Active
[20]
  Activity: Active
[21]
  Activity: Active
[22]
  Tm: 51.5 °C
[23]
  Activity: Active
[24]
  Activity: Active
[25]
  Activity: Active
[26]
  Activity: Active
[27]
  Activity: Dde
[28]
  Activity: Dde
[29]
  Activity: Active
[30]
  Activity: Tde
[31]
  Activity: Active
[32]
  inhibition: Dde
[33]
  Activity: Active
[34]
  Activity: Active
[35]
  Activity: Active
[36]
  Activity: Dde
[37]
  Activity: Active
[38]
  Activity: Active
[39]
  Activity: Dde
[40]
  Activity: Dde
[41]
  Activity: Dde
[42]
  Activity: Active
[43]
  Activity: Active
[44]
  Activity: Tde
[45]
  Activity: Active
[46]
  Activity: Active
[47]
  Activity: Dde
[48]
  Activity: Tde
[49]
  Activity: Active

## c1ccc2c(c1)[nH]c1cnc(NCC3CCCCC3)cc12
[1]
  Activity: Active
[2]
  Activity: Active

## c1ccc(Oc2cccc(CNc3cc4ccccc4cn3)c2)cc1
[1]
  Activity: Active
[2]
  Activity: Active
